Measured values taken from patent US4782042A, “Antibiotic A 40926 mannosyl aglycon” (Gruppo Lepetit S.p.A., priority 1985, dated 1988).

What was measured:
[1] = system: Clostridium difficile ATCC 9689; test: MIC, agar dilution (Wilkins-Chalgren agar, 48 h, anaerobic); format: cell-based
[2] = system: Clostridium perfringens ISS30543; format: cell-based; conditions: anaerobic
[3] = system: Neisseria gonorrhoeae ISM68/126; test: MIC, broth dilution (GC base broth + 1% Isovitalex, 48 h, CO2-enriched); format: cell-based
Strep. pneumoniae UC41 = test: MIC, broth dilution (Todd-Hewitt broth, 24 h); format: cell-based
[4] = system: Staph. epidermidis ATCC 12228; test: MIC, broth dilution (Isosensitest broth, 24 h); format: cell-based
Staph. aureus Tour = test: MIC, broth dilution (Isosensitest broth, 24 h); format: cell-based
[5] = system: Mycoplasma gallisepticum S6 Weybridge; test: MIC, broth dilution (PPLO broth + 10% horse serum + 1% glucose, 48 h); format: cell-based
[6] = system: Strep. faecalis ATCC 7080; test: MIC, broth dilution (Isosensitest broth, 24 h); format: cell-based
Strep. pyogenes C203 = test: MIC, broth dilution (Todd-Hewitt broth, 24 h); format: cell-based
[7] = system: Strept. mitis clin. isolate; test: MIC, broth dilution (Todd-Hewitt broth, 24 h); format: cell-based
[8] = system: Propionibacterium acnes ATCC 6919; test: MIC, agar dilution (Wilkins-Chalgren agar, 48 h, anaerobic); format: cell-based
[9] = system: Haemophilus influenzae type b ATCC 19418; test: MIC, agar dilution (GB base agar + 1% Isovitalex + 0.001% hemin, 24 h); format: cell-based
[10] = system: Escherichia coli SKF 12140; test: MIC, broth dilution (Isosensitest broth, 24 h); format: cell-based
[11] = system: Bacteroides fragilis ATCC 23745; test: MIC, agar dilution (Wilkins-Chalgren agar, 48 h, anaerobic); format: cell-based
S. pyogenes C 203 = test: Experimental septicemia in mice, ED50; format: in vivo; conditions: mice infected intraperitoneally with S. pyogenes C 203; treated subcutaneously about 30 min after infection; survival, calculated on the 10th day (Spearman and Karber)
Procedure: The antimicrobial activity of the compound of the invention is confirmed also in in vivo experiments conducted essentially as described by R. Pallanza et al., J. Antimicrob. Chemother. 11, 419 (1983). The experimental infection was induced in mice by intraperitoneally administering a suspension of S. pyogenes C 203. Inocula had been adjusted so that the untreated animals died of septicemia within 48 h. Animals were treated subcutaneously with the test compound about 30 min after infection. The ED50 value was calculated on the 10th day by the method of Spearman and Karber (D. J. Finney "Statistical Methods in Biological Assay", Griffin, page 524, 1952) on the basis of the percentage of survival at each dose.

Which results are given for antibiotic A 40926 mannosyl aglycon?
M.I.C. [1]: 2 µg/mL; M.I.C. [2]: 0.13 µg/mL; M.I.C. [3]: 32 µg/mL; M.I.C. (Strep. pneumoniae UC41): 1 µg/mL; M.I.C. [4]: 0.5 µg/mL; M.I.C. (Staph. aureus Tour; Staph. aureus Tour (L165), 10^6 cfu/ml): 1 µg/mL; M.I.C. (Staph. aureus Tour; Staph. aureus Tour, 30% bovine serum): 2 µg/mL; M.I.C. (Staph. aureus Tour; Staph. aureus Tour, inoculum about 10^4-10^5 cfu/ml): 0.25 µg/mL; M.I.C. [5]: > 128 µg/mL; M.I.C. [6]: 1 µg/mL; M.I.C. (Strep. pyogenes C203): 1 µg/mL; M.I.C. [7]: 1 µg/mL; M.I.C. [8]: 1 µg/mL; M.I.C. [9]: 64 µg/mL; M.I.C. [10]: > 128 µg/mL; M.I.C. [11]: 64 µg/mL; ED50 (S. pyogenes C 203): 3.8 mg/kg
